Reference: the NIST ThermoML archive (doi:10.1021/je100145f)

Assay: xn = mol fraction of the nth substance listed
Settings: 101 kPa, Liquid, Vibrating tube method

N#Cc1ccccc1 [benzonitrile] + CCCCCCCCC
mass density [kg/m3]
Settings	285.15 K	288.15 K	293.15 K	298.15 K	303.15 K	308.15 K	313.15 K
x1 = 0.0239	728.45	726.13	722.24	718.34	714.42	710.49	706.54
x1 = 0.0499	732.81	730.47	726.57	722.65	718.72	714.77	710.81
x1 = 0.0989	741.4	739.05	735.11	731.16	727.2	723.22	719.23
x1 = 0.1985	760.34	757.95	753.95	749.94	745.93	741.89	737.84
x1 = 0.2542	771.77	769.36	765.34	761.3	757.25	753.19	749.11
x1 = 0.2998	781.58	779.16	775.11	771.05	766.97	762.89	758.79
x1 = 0.4005	804.92	802.47	798.37	794.26	790.14	786	781.85
x1 = 0.4966	829.64	827.16	823.01	818.85	814.68	810.5	806.31
x1 = 0.5998	859.12	856.6	852.4	848.19	843.96	839.73	835.48
x1 = 0.6996	891.01	888.45	884.18	879.91	875.63	871.34	867.05
x1 = 0.7999	926.93	924.34	920	915.67	911.33	906.99	902.64
x1 = 0.9001	967.24	964.61	960.22	955.83	951.44	947.05	942.65
x1 = 0.9497	988.96	986.32	981.91	977.49	973.08	968.67	964.25
x1 = 0.9805	1003.05	1000.4	995.97	991.55	987.13	982.7	978.27
x1 = 1	1012.21	1009.55	1005.12	1000.69	996.26	991.83	987.4
